In the oligonucleotide strings, read from the 5' end, every base follows the letter of its sugar. An asterisk marks phosphorothioate; unmarked linkages are phosphodiester. Other units and linkages are bracketed, terminal groups are in braces. A string of capitals states the bases alone. e = 2'-O-(2-methoxyethyl) (MOE); [5mC] = 5-methylcytosine; d = 2'-deoxy (DNA)
Test system: human apolipoprotein B mRNA
Assay: Inhibition of human apolipoprotein B mRNA levels in HepG2 cells, quantitative real-time PCR
Type: cell-based
Settings: for % INHIB (inhibition of human apolipoprotein B mRNA levels): HepG2 cells treated with 150 nM of compound, quantitative real-time PCR; for % Change in apolipoprotein B mRNA expression: 24 hour (Table 41)
Method in brief: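 Apolipoprotein B transcript was quantified by one-step TaqMan RT-PCR, normalized to GAPDH or RiboGreen RNA, and expressed as percent inhibition against an untreated-sample standard curve. HepG2 cells were harvested 16-24 h after oligonucleotide exposure, which was delivered with 3.75 μg/mL Lipofectin over 4-7 h at 80% confluency.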

[1] = HepG2 cells, human apolipoprotein B mRNA, oligonucleotides targeting genomic sequence SEQ ID NO 334, averages from two experiments
[2] = Table 1, HepG2 cells, 150 nM, averages from two experiments
[3] = Table 11 gene walk, HepG2 cells, 50 nM, averages from two experiments
[4] = Table 11 gene walk, HepG2 cells, 150 nM, averages from two experiments
[5] = HepG2 cells, 50 nm oligonucleotide, variable deoxy gap position
[6] = HepG2 cells, 150 nm oligonucleotide, variable deoxy gap position

Q: How did the “% INHIB (inhibition of human apolipoprotein B mRNA levels)” value (averages from two experiments) turn out when “281603 (antisense eT*eA*eT*e[5mC]*eT*dG*d[5mC]*d[5mC]*dT*dG*dT*dG*dA*dA*dG*eG*eA*e[5mC]*eT*e[5mC]) [compound 281603]” was run?
A: Its value is 82%.

Q: With “301086 (antisense eG*eG*eT*eT*eT*dT*dG*d[5mC]*dT*dG*d[5mC]*d[5mC]*d[5mC]*dT*dA*e[5mC]*eA*eT*e[5mC]*e[5mC]) [compound 301086]” as the substance, how does the “% INHIB” value [1] read?
A: The value was 30%.

Q: With “147792 (antisense eG*eG*eA*e[5mC]*eA*d[5mC]*d[5mC]*dT*d[5mC]*dA*dA*dT*d[5mC]*dA*dG*e[5mC]*eT*eG*eT*eG) [compound 147792]” as the substance, how does the “% INHIB” value [2] read?
A: Its value is 26%.

Q: Which “% Change in apolipoprotein B mRNA expression” value (shortened to “% Change”) (HepG2 cells, 10 nM) does the source give for “332778 (antisense GCCTCAGTCTGCTTC; sugars from the 5' end e5 d10, linkages s4 o1 s9 (s phosphorothioate, o phosphodiester), methylation of C not given here) [compound 332778]” here?
A: Its value is −11%.

Q: And the “% Change” value (HepG2 cells, 50 nM)?
A: The value was −20%.

Q: And the “% Change” value (HepG2 cells, 150 nM)?
A: The value was −58%.

Q: How did the “% INHIB (inhibition of human apolipoprotein B mRNA levels)” value (averages from two experiments) turn out when “271013 (antisense eG*eA*eA*e[5mC]*eT*dG*d[5mC]*d[5mC]*d[5mC]*dA*dT*d[5mC]*dA*dA*dT*e[5mC]*eT*eT*eG*eA) [compound 271013]” was run?
A: Its value is 19%.

Q: “271008 (antisense e[5mC]*e[5mC]*e[5mC]*eG*eG*dT*d[5mC]*dA*dG*d[5mC]*dG*dG*dA*dT*dA*eG*eT*eA*eG*eG) [compound 271008]” was tested. Which “% INHIB (inhibition of human apolipoprotein B mRNA levels)” value (averages from two experiments) did it give?
A: Its value is 37%.

Q: With “ISIS 332770: ISIS 301012 derivative with a single thymidine to cytosine substitution in the center of the oligonucleotide (GCCTCAGTCTTCTTCGCACC; sugars from the 5' end e5 d10 e5, all phosphorothioate, methylation of C not given here)” as the substance, how does the “potency relative to ISIS 301012 (fold less potent)” value (HepG2 cells, 50 or 150 nM, 24 hours) read?
A: Its value is 3 fold.

Q: For “270993 (antisense eT*eT*eG*eA*eA*dG*d[5mC]*dG*dA*dT*d[5mC]*dA*d[5mC]*dA*d[5mC]*eT*eG*e[5mC]*e[5mC]*e[5mC]) [compound 270993]”, which “% INHIB (inhibition of human apolipoprotein B mRNA levels)” value (averages from two experiments) is on record?
A: Its value is 69%.

Q: Which “% INHIB” value [1] does the source give for “301130 (e[5mC]*eT*eG*eA*e[5mC]*dA*d[5mC]*dA*d[5mC]*d[5mC]*dA*dT*dG*dT*dT*eA*eT*eT*eA*eT; antisense) [compound 301130]” here?
A: Its value is 10%.

Q: “308626 (eA*eG*eT*e[5mC]*eT*dG*d[5mC]*dT*dT*d[5mC]*dG*d[5mC]*dG*d[5mC]*d[5mC]*eT*eT*e[5mC]*eT*eG; antisense) [compound 308626]” was tested. Which “% INHIB 50 nm” value (Table 13 gene walk, HepG2 cells, 50 nM, averages from two experiments) did it give?
A: The value was 38%.

Q: What about the “% INHIB 150 nm” value (Table 13 gene walk, HepG2 cells, 150 nM, averages from two experiments) of the same substance?
A: The value was 94%.

Q: How did the “% INHIB” value [1] turn out when “301066 (eG*eA*e[5mC]*e[5mC]*eT*d[5mC]*d[5mC]*d[5mC]*d[5mC]*dA*dG*d[5mC]*d[5mC]*dA*d[5mC]*eG*eT*eG*eG*eA; antisense) [compound 301066]” was run?
A: Its value is 61%.

Q: For “301077 (eG*eG*e[5mC]*eA*eG*dG*dA*dG*dG*dA*dA*d[5mC]*d[5mC]*dT*d[5mC]*eG*eG*eG*e[5mC]*eA; antisense) [compound 301077]”, which “% INHIB” value [1] is on record?
A: The value was 55%.

Q: Which “% INHIB” value [1] does the source give for “301209 (antisense eA*eT*eA*eA*eA*dT*dA*dA*dT*dA*dG*dT*dG*d[5mC]*dT*eG*eA*eT*eG*eG) [compound 301209]” here?
A: The value was 39%.

Q: Which “% INHIB” value [1] does the source give for “301115 (antisense e[5mC]*eA*e[5mC]*eA*eA*dG*dA*dG*dT*dA*dA*dG*dG*dA*dG*e[5mC]*eA*eG*eA*eG) [compound 301115]” here?
A: Its value is 39%.

Q: Which “% INHIB” value [2] does the source give for “147809 (antisense e[5mC]*e[5mC]*e[5mC]*eA*eG*dT*dG*dA*dT*dA*dG*d[5mC]*dT*d[5mC]*dT*eG*eT*eG*eA*eG) [compound 147809]” here?
A: Its value is 60%.

Q: “147782 (antisense eG*e[5mC]*e[5mC]*eT*e[5mC]*dG*dG*d[5mC]*d[5mC]*dT*d[5mC]*dG*d[5mC]*dG*dG*e[5mC]*e[5mC]*e[5mC]*eT*eG) [compound 147782]” was tested. Which “% INHIB” value [2] did it give?
A: The value was 67%.

Q: For “281632 (antisense eT*eG*eA*eT*eA*dG*dT*dG*d[5mC]*dT*d[5mC]*dA*dT*d[5mC]*dA*eA*eG*eA*e[5mC]*eT) [compound 281632]”, which “% INHIB (inhibition of human apolipoprotein B mRNA levels)” value (averages from two experiments) is on record?
A: The value was 75%.

Q: Which “% INHIB 50 nm” value [3] does the source give for “308592 (antisense eT*e[5mC]*eG*e[5mC]*eA*d[5mC]*d[5mC]*dT*dT*d[5mC]*dT*dG*d[5mC]*dT*dT*eG*eA*eG*eT*eT) [compound 308592]” here?
A: Its value is 49%.

Q: What about the “% INHIB 150 nm” value [4] of the same substance?
A: The value was 96%.

Q: With “281648 (eG*e[5mC]*eA*eG*eG*dT*d[5mC]*d[5mC]*dA*dG*dT*dT*d[5mC]*dA*dT*eA*eT*eG*eT*eG; antisense) [compound 281648]” as the substance, how does the “% INHIB (inhibition of human apolipoprotein B mRNA levels)” value (averages from two experiments) read?
A: Its value is 81%.

Q: For “301025 (eT*eA*eT*eG*eT*dG*dA*dA*dA*dG*dT*dT*d[5mC]*dA*dA*eT*eT*eG*eG*eA; antisense) [compound 301025]”, which “% INHIB (inhibition of human apolipoprotein B mRNA levels)” value (averages from two experiments) is on record?
A: The value was 76%.

Q: For “308652 (antisense AGGTTACCAGCCACATGCAG; 7-10-3 2'-MOE gapmer, phosphorothioate, chemistry not fully specified) [compound 308652]”, which “% INHIB 50 nm” value [5] is on record?
A: Its value is 73%.

Q: And the “% INHIB 150 nm” value [6]?
A: Its value is 95%.

Q: For “271032 (e[5mC]*eT*eG*eT*eG*dG*d[5mC]*dT*dA*dA*d[5mC]*dT*dT*d[5mC]*dA*eA*eT*e[5mC]*e[5mC]*e[5mC]; antisense) [compound 271032]”, which “% INHIB (inhibition of human apolipoprotein B mRNA levels)” value (averages from two experiments) is on record?
A: The value was 22%.

Q: For “301140 (eG*e[5mC]*eA*eT*eA*d[5mC]*dA*dA*dG*dT*d[5mC]*dA*d[5mC]*dA*dT*eG*eA*eG*eG*eT; antisense) [compound 301140]”, which “% INHIB” value [1] is on record?
A: The value was 34%.

Q: Which “% INHIB” value [1] does the source give for “301052 (eA*eG*eA*eA*eA*dT*dA*dG*d[5mC]*dT*d[5mC]*dT*d[5mC]*d[5mC]*d[5mC]*eA*eA*eG*eG*eA; antisense) [compound 301052]” here?
A: The value was 13%.

Q: “281646 (eT*e[5mC]*e[5mC]*e[5mC]*eG*dG*dA*d[5mC]*d[5mC]*d[5mC]*dT*d[5mC]*dA*dA*d[5mC]*eT*e[5mC]*eA*eG*eT; antisense) [compound 281646]” was tested. Which “% INHIB (inhibition of human apolipoprotein B mRNA levels)” value (averages from two experiments) did it give?
A: The value was 76%.

Q: Which “% INHIB 50 nm” value [5] does the source give for “308655 (antisense AGGTTACCAGCCACATGCAG; 8-10-2 2'-MOE gapmer, phosphorothioate, chemistry not fully specified) [compound 308655]” here?
A: Its value is 84%.

Q: And the “% INHIB 150 nm” value [6]?
A: The value was 83%.

Q: How did the “% INHIB” value [1] turn out when “301079 (eT*eG*eA*e[5mC]*eT*dG*dT*dT*dT*dT*dA*dA*dA*dA*dT*eT*eA*eG*eA*e[5mC]; antisense) [compound 301079]” was run?
A: Its value is 20%.

Q: “270991 (antisense eG*eA*eG*e[5mC]*eA*dG*dT*dT*dT*d[5mC]*d[5mC]*dA*dT*dA*d[5mC]*eA*e[5mC]*eG*eG*eT) [compound 270991]” was tested. Which “% INHIB (inhibition of human apolipoprotein B mRNA levels)” value (averages from two experiments) did it give?
A: Its value is 21%.

Q: “301201 (antisense eA*eA*eA*eA*eT*d[5mC]*d[5mC]*dA*dT*dT*dT*dT*d[5mC]*dT*dT*eT*eA*eA*eA*eG) [compound 301201]” was tested. Which “% INHIB” value [1] did it give?
A: Its value is 12%.

Q: With “308621 (eT*eT*eT*eG*eG*dT*dA*dG*dG*d[5mC]*dT*d[5mC]*d[5mC]*dT*dT*eT*eT*eA*eG*eG; antisense) [compound 308621]” as the substance, how does the “% INHIB 50 nm” value [3] read?
A: The value was 56%.

Q: And the “% INHIB 150 nm” value [4]?
A: Its value is 91%.

Q: For “308648 (antisense GCCTCAGTCTGCTTCGCGCC; 6-10-4 2'-MOE gapmer, phosphorothioate, chemistry not fully specified) [compound 308648]”, which “% INHIB 50 nm” value (Table 17 variable gap, HepG2 cells, 50 nM, averages from three experiments) is on record?
A: The value was 78%.

Q: And the “% INHIB 150 nm” value (Table 17 variable gap, HepG2 cells, 150 nM, averages from three experiments)?
A: The value was 89%.
